Counter-ions that a name gives are not always drawn.
Experiments:
sickle hemoglobin (HbS) = target: T1, sickle hemoglobin (HbS) (Homo sapiens, UniProt P68871+P69905, E7V); test: Solubility assay (Csat assay): solubility of deoxygenated sickle hemoglobin in the presence of drug; type: biochemical
T1 construct: from tissue
Protocol: One major assay for evaluating antisickling agents involves measuring their effect on increasing the concentration at which sickle hemoglobin forms a gel. This is called the solubility or Csat assay.
The solubility assay (Csat assay) measures the ability of a compound to increase solubility of sickle hemoglobin (HbS).
In order to confirm the effectiveness of these compounds in reducing the effect of sickle cell anemia, tests were performed. The materials were tested according to the assay (Csat) developed by Hofrichter et al. (J. Hofrichter, P.D. Ross and W. A. Eaton Proc. Natl. Acad. Sci. USA, 73 30-35, 1976). This assay involves deoxygenation of concentrated sickle hemoglobin with dithionite in the presence of different concentrations of the drugs being tested Samples were then sealed in quartz epr tubes under anaerobic conditions and spun at about 150,000 × g for about 21/2 hours at about 35° C. in an ultracentrifuge. This procedure pellets the polymerized HbS (sickle hemoglobin) to the bottom of the tubes and the supernatant (soluble HbS) was measured in the laboratory as the cyanmethemoglobin derivative. […] Activity is reported as a ratio of the HbS solubility with the particular drug to HbS solubility with no drug i.e. control. The higher the ratio the greater degree of activity of the drug. The numbers in parenthesis are % increase in the solubility of HbS; again the higher the number, the greater the activity of the drug. The results ofthe compound of Example 9, is shown as a representative example of the compounds of this invention.

HbS = test: Chromatographic separation: tight covalent binding between HbS and the agent; design: species or system human
[1] = Tests of transport across erythrocyte membranes; type: in vitro ADME, human; settings: red blood cell membrane

| SMILES | solubility ratio compared with other antisickling agents (in words) (sickle hemoglobin (HbS); low concentrations (5 mM), versus dichlorobenzyloxyacetic and p-bromobenzyloxyacetic acids) | covalent binding between the HbS and the therapeutic agent (in words) (HbS) | transport across erythrocyte membranes (in words) [1] | activation at 3000 µM (sickle hemoglobin (HbS); 3 mM, read-out: % increase in Solubility (of HbS)) [%] | fold induction at 3000 µM (sickle hemoglobin (HbS); 3 mM, read-out: Ratio of the HbS Solubility with the Drug Compared to HbS Solubility Without Drug) | activation at 5000 µM (sickle hemoglobin (HbS); 5 mM, read-out: % increase in Solubility (of HbS)) [%] | fold induction at 5000 µM (sickle hemoglobin (HbS); 5 mM, read-out: Ratio of the HbS Solubility with the Drug Compared to HbS Solubility Without Drug) | activation at 7000 µM (sickle hemoglobin (HbS); 7 mM, read-out: % increase in Solubility (of HbS)) [%] | fold induction at 7000 µM (sickle hemoglobin (HbS); 7 mM, read-out: Ratio of the HbS Solubility with the Drug Compared to HbS Solubility Without Drug) | activation at 9000 µM (sickle hemoglobin (HbS); 9 mM, read-out: % increase in Solubility (of HbS)) [%] | fold induction at 9000 µM (sickle hemoglobin (HbS); 9 mM, read-out: Ratio of the HbS Solubility with the Drug Compared to HbS Solubility Without Drug) |
| --- | --- | --- | --- | --- | --- | --- | --- | --- | --- | --- | --- |
| C=C(CC)C(=O)c1ccc(OCC(=O)NCC(=O)O)c(Cl)c1Cl [sodium salt of N-{([2,3-dichloro-4-(2-methylenebutyryl)-phenoxy]acetyl)}glycine] | higher solubility ratio than other antisickling agents, such as, dichlorobenzyloxyacetic and p-bromobenzyloxyacetic acids | desired tight covalent binding between the HbS and the therapeutic agent had occurred | confirmed the ability of the agent to cross the red blood cell membrane and react with hemoglobin |  |  |  |  |  |  |  |  |
| C=C(CC)C(=O)c1ccc(OCC(=O)NCC(=O)O)c(Cl)c1Cl [Example 9, N-{[2,3-Dichloro-4-(2-methylenebutyryl)phenoxy]-acetyl}glycine] |  |  |  | 27 | 1.11 | 36 | 1.15 | 56 | 1.22 | 82 | 1.33 |

Reference: patent US4699926A, “Compounds useful in treating sickle cell anemia” (Merck & Co., Inc., priority 1986, dated 1987)
